In patent publication US20240207263A1, “SELECTIVE MODULATORS OF ATAXIA TELA[…] (ATM) KINASE AND USES THEREOF” (priority 2021, published 2024):

These compounds were tested against ATM (Homo sapiens (Human), UniProt Q13315) (assay: biochemical). Settings: read-out: ATM IC50.
Chain of ATM (Q13315 whole entry, looked up): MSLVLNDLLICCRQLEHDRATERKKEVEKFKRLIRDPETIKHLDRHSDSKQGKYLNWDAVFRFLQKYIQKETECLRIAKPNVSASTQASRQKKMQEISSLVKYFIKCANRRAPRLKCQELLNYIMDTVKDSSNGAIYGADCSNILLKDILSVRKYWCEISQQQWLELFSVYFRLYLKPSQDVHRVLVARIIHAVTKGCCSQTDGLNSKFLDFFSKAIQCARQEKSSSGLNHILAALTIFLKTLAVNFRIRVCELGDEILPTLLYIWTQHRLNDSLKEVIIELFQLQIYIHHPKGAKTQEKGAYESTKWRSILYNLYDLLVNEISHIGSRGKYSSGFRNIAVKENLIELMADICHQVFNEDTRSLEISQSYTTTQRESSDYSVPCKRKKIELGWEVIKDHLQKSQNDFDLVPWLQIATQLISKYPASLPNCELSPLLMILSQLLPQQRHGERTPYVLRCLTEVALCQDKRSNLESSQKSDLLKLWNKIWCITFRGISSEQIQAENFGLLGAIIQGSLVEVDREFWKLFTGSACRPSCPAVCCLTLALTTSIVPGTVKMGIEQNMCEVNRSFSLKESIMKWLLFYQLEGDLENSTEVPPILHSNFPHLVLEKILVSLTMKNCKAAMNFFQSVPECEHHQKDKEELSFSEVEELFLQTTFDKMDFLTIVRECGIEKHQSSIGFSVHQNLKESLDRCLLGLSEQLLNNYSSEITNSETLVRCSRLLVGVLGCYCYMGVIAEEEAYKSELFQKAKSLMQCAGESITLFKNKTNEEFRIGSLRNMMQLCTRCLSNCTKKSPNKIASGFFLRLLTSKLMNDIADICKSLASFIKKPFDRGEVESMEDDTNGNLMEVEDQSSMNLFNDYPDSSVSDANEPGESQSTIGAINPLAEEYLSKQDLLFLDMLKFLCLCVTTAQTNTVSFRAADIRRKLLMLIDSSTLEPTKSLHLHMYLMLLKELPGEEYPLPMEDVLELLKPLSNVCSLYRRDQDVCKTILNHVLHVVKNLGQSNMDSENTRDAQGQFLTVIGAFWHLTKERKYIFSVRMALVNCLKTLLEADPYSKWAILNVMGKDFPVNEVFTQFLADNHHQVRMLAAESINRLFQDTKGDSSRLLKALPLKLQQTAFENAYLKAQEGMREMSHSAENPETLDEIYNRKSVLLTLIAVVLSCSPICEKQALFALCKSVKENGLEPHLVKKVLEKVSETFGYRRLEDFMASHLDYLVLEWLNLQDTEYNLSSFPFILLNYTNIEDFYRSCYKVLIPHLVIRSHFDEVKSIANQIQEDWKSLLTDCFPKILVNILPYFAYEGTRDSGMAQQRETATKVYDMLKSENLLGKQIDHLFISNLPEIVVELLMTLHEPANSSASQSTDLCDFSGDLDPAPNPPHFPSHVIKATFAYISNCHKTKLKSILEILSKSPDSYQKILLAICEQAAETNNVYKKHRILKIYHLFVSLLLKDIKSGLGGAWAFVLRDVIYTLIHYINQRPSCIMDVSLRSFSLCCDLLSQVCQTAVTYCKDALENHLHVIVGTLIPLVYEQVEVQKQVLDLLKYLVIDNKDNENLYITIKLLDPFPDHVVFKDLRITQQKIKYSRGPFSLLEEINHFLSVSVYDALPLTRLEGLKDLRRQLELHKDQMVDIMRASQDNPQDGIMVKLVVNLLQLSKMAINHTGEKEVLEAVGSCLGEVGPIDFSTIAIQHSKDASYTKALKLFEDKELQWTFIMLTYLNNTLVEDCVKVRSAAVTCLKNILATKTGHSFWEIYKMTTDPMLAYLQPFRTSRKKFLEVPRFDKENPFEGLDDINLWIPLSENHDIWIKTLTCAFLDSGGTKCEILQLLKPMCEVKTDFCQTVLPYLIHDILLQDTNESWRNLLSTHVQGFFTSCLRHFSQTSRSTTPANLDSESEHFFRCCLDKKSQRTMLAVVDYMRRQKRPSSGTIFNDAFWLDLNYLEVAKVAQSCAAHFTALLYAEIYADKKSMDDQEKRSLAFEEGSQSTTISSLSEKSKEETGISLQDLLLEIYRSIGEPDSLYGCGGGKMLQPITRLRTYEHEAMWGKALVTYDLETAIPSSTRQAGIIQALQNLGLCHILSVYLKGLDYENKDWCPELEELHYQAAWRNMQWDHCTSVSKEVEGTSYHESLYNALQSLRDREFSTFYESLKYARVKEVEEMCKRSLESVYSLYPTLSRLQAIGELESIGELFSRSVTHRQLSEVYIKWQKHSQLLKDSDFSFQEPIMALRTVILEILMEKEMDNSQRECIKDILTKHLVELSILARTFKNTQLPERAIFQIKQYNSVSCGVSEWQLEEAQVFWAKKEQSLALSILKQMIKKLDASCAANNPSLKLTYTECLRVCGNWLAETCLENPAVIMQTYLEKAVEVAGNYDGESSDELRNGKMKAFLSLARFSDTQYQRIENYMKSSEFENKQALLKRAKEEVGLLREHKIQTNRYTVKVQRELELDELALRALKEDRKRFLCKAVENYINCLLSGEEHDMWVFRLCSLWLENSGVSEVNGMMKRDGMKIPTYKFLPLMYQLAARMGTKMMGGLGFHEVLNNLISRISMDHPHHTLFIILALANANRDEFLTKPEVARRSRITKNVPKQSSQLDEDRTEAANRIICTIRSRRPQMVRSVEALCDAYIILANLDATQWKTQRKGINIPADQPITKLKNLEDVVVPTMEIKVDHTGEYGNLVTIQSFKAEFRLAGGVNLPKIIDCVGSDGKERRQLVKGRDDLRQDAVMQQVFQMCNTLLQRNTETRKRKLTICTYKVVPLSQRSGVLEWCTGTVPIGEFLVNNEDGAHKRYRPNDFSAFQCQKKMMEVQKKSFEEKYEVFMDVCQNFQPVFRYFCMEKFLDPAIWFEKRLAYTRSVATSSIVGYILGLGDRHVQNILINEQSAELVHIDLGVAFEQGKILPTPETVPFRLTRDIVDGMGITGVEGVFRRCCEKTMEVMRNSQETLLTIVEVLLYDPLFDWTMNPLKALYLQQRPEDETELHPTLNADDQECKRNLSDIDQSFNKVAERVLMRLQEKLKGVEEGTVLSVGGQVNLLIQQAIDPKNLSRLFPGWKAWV
Assay type: biochemical
Description: Assay a): ATM Biochemical Potency
Data was collected by Caliper.
With `CC(C)n1c(=O)n(C)c2nnc3ccc(-c4ccc(COCCN5CCC[C@H]5C)nc4)cc3c21` [Example 35, (R)-1-isopropyl-3-methyl-8-(6-((2-(2-methylpyrrolidin-1-yl)ethoxy)methyl)pyridin-3-yl)-1H-imidazo[4,5-c]cinnolin-2(3H)-one] the IC50 was 43 nM.
`CC(C)n1c(=O)n(C)c2nnc3ccc(-c4ccc(COCCN5CC(N(C)C)C5)nc4)cc3c21` [Example 37, 8-(6-((2-(3-(dimethylamino)azetidin-1-yl)ethoxy)methyl)pyridin-3-yl)-1-isopropyl-3-methyl-1H-imidazo[4,5-c]cinnolin-2(3H)-one] gave an IC50 of 78 nM.
In the case of `CC(C)n1c(=O)n(C)c2nnc3ccc(-c4ccc(COCCN5CCCC(F)C5)nc4)cc3c21` (stereo not drawn) [Example 38, 8-(6-((2-(3-fluoropiperidin-1-yl)ethoxy)methyl)pyridin-3-yl)-1-isopropyl-3-methyl-1H-imidazo[4,5-c]cinnolin-2(3H)-one], the IC50 is reported as 57 nM.
`CC(C)n1c(=O)n(C)c2nnc3ccc(-c4ccc(COCCN5CC6CCC5C6)nc4)cc3c21` (stereo not drawn) [Example 39, 8-(6-((2-(2-azabicyclo[2.2.1]heptan-2-yl)ethoxy)methyl)pyridin-3-yl)-1-isopropyl-3-methyl-1H-imidazo[4,5-c]cinnolin-2(3H)-one] gave an IC50 of 73 nM.
In the case of `CC(C)n1c(=O)n(C)c2nnc3ccc(-c4ccc(COCCN5CCCC6(CCC6)C5)nc4)cc3c21` [Example 40, 8-(6-((2-(6-azaspiro[3.5]nonan-6-yl)ethoxy)methyl)pyridin-3-yl)-1-isopropyl-3-methyl-1H-imidazo[4,5-c]cinnolin-2(3H)-one], the IC50 is reported as 24 nM.
`COC1CCCN(CCOCc2ccc(-c3ccc4nnc5c(c4c3)n(C(C)C)c(=O)n5C)cn2)C1` (stereo not drawn) [Example 41, 1-isopropyl-8-(6-((2-(3-methoxypiperidin-1-yl)ethoxy)methyl)pyridin-3-yl)-3-methyl-1H-imidazo[4,5-c]cinnolin-2(3H)-one] gave an IC50 of 50 nM.
With `CC(C)n1c(=O)n(C)c2nnc3ccc(-c4ccc(COCCN5CC[C@H](N(C)C)C5)nc4)cc3c21` [Example 42, (S)-8-(6-((2-(3-(dimethylamino)pyrrolidin-1-yl)ethoxy)methyl)pyridin-3-yl)-1-isopropyl-3-methyl-1H-imidazo[4,5-c]cinnolin-2(3H)-one] the IC50 was 44 nM.
Work on `COC1CCN(CCOCc2ccc(-c3ccc4nnc5c(c4c3)n(C(C)C)c(=O)n5C)cn2)CC1` [Example 44, 1-isopropyl-8-(6-((2-(4-methoxypiperidin-1-yl)ethoxy)methyl)pyridin-3-yl)-3-methyl-1H-imidazo[4,5-c]cinnolin-2(3H)-one] yielded an IC50 of 12 nM.
In the case of `CC(C)n1c(=O)n(C)c2nnc3ccc(-c4ccc(COCCN5[C@H](C)CC[C@@H]5C)nc4)cc3c21` [Example 45, 8-(6-((2-((2R,5S)-2,5-dimethylpyrrolidin-1-yl)ethoxy)methyl)pyridin-3-yl)-1-isopropyl-3-methyl-1H-imidazo[4,5-c]cinnolin-2(3H)-one], the IC50 is reported as 84 nM.
`CC(C)n1c(=O)n(C)c2nnc3ccc(-c4ccc(COCCN5CC[C@@H](N(C)C)C5)nc4)cc3c21` [Example 46, (R)-8-(6-((2-(3-(dimethylamino)pyrrolidin-1-yl)ethoxy)methyl)pyridin-3-yl)-1-isopropyl-3-methyl-1H-imidazo[4,5-c]cinnolin-2(3H)-one] gave an IC50 of 76 nM.
For `CC(C)n1c(=O)n(C)c2nnc3ccc(-c4ccc(COCCN5CCC(OC(F)(F)F)CC5)nc4)cc3c21` [Example 47, 1-isopropyl-3-methyl-8-(6-((2-(4-(trifluoromethoxy)piperidin-1-yl)ethoxy)methyl)pyridin-3-yl)-1H-imidazo[4,5-c]cinnolin-2(3H)-one], the IC50 was 2.2 nM.
Compound `CC(C)n1c(=O)n(C)c2nnc3ccc(-c4ccc(COCCN5CC6C(C5)C6(F)F)nc4)cc3c21` (stereo not drawn) [Example 48, 8-(6-((2-(6,6-difluoro-3-azabicyclo[3.1.0]hexan-3-yl)ethoxy)methyl)pyridin-3-yl)-1-isopropyl-3-methyl-1H-imidazo[4,5-c]cinnolin-2(3H)-one] has an IC50 of 17 nM.
Work on `CC(C)n1c(=O)n(C)c2nnc3ccc(-c4ccc(COCCN5CCC6(CCC6)CC5)nc4)cc3c21` [Example 49, 8-(6-((2-(7-azaspiro[3.5]nonan-7-yl)ethoxy)methyl)pyridin-3-yl)-1-isopropyl-3-methyl-1H-imidazo[4,5-c]cinnolin-2(3H)-one] yielded an IC50 of 2.8 nM.
For `CC(C)n1c(=O)n(C)c2nnc3ccc(-c4ccc(COCCN5CC[C@@H](OC(F)F)C5)nc4)cc3c21` [Example 50, (R)-8-(6-((2-(3-(difluoromethoxy)pyrrolidin-1-yl)ethoxy)methyl)pyridin-3-yl)-1-isopropyl-3-methyl-1H-imidazo[4,5-c]cinnolin-2(3H)-one], the IC50 was 11 nM.
`CC(C)n1c(=O)n(C)c2nnc3ccc(-c4ccc(COCCN5CC[C@H](OC(F)F)C5)nc4)cc3c21` [Example 51, (S)-8-(6-((2-(3-(difluoromethoxy)pyrrolidin-1-yl)ethoxy)methyl)pyridin-3-yl)-1-isopropyl-3-methyl-1H-imidazo[4,5-c]cinnolin-2(3H)-one] showed an IC50 of 7.6 nM.
`CC(C)n1c(=O)n(C)c2nnc3ccc(-c4ccc([C@@H](C)OCCN5CCC(OC(F)(F)F)CC5)nc4)cc3c21` [Example 58, (R)-1-isopropyl-3-methyl-8-(6-(1-(2-(4-(trifluoromethoxy)piperidin-1-yl)ethoxy)ethyl)pyridin-3-yl)-1H-imidazo[4,5-c]cinnolin-2(3H)-one] showed an IC50 of 1.4 nM.
In the case of `CC(C)n1c(=O)n(C)c2nnc3ccc(-c4ccc([C@@H](C)OCCN5CCC(OC(F)(F)F)C5)nc4)cc3c21` (stereo partly drawn) [Example 60], the IC50 is reported as 2.8 nM.
In the case of `CC(C)n1c(=O)n(C)c2nnc3ccc(-c4ccc([C@@H](C)OCCN5CCC(C)(C)C5)nc4)cc3c21` [Example 61, (R)-8-(6-(1-(2-(3,3-dimethylpyrrolidin-1-yl)ethoxy)ethyl)pyridin-3-yl)-1-isopropyl-3-methyl-1H-imidazo[4,5-c]cinnolin-2(3H)-one], the IC50 is reported as 3.4 nM.
With `CO[C@@H]1CCN(CCO[C@@H](C)c2ccc(-c3ccc4nnc5c(c4c3)n(C(C)C)c(=O)n5C)cn2)C1` [Example 64, 1-isopropyl-8-(6-((S)-1-(2-((R)-3-methoxypyrrolidin-1-yl)ethoxy)ethyl)pyridin-3-yl)-3-methyl-1H-imidazo[4,5-c]cinnolin-2(3H)-one] the IC50 was 19 nM.
`CO[C@H]1CCN(CCO[C@@H](C)c2ccc(-c3ccc4nnc5c(c4c3)n(C(C)C)c(=O)n5C)cn2)C1` [Example 65, 1-isopropyl-8-(6-((S)-1-(2-((S)-3-methoxypyrrolidin-1-yl)ethoxy)ethyl)pyridin-3-yl)-3-methyl-1H-imidazo[4,5-c]cinnolin-2(3H)-one] gave an IC50 of 167 nM.
`CC(C)n1c(=O)n(C)c2nnc3ccc(-c4ccc([C@@H](C)OCCN5CC6CC6C5)nc4)cc3c21` (stereo partly drawn) [Example 66, 8-(6-((1R)-1-(2-(3-azabicyclo[3.1.0]hexan-3-yl)ethoxy)ethyl)pyridin-3-yl)-1-isopropyl-3-methyl-1H-imidazo[4,5-c]cinnolin-2(3H)-one] showed an IC50 of 10 nM.
`CC(C)n1c(=O)n(C)c2nnc3ccc(-c4ccc([C@H](C)OCCN5CC6CC6C5)nc4)cc3c21` (stereo partly drawn) [Example 67, 8-(6-((1S)-1-(2-(3-azabicyclo[3.1.0]hexan-3-yl)ethoxy)ethyl)pyridin-3-yl)-1-isopropyl-3-methyl-1H-imidazo[4,5-c]cinnolin-2(3H)-one] was tested, and the IC50 was 158 nM.
`CC(C)n1c(=O)n(C)c2nnc3ccc(-c4ccc([C@H](C)OCCN5CCC(F)CC5)nc4)cc3c21` [Example 68, (S)-8-(6-(1-(2-(4-fluoropiperidin-1-yl)ethoxy)ethyl)pyridin-3-yl)-1-isopropyl-3-methyl-1H-imidazo[4,5-c]cinnolin-2(3H)-one] showed an IC50 of 160 nM.
Work on `CC(C)n1c(=O)n(C)c2nnc3ccc(-c4ccc([C@H](C)OCCN5CCC(C)(C)CC5)nc4)cc3c21` [Example 72, (S)-8-(6-(1-(2-(4,4-dimethylpiperidin-1-yl)ethoxy)ethyl)pyridin-3-yl)-1-isopropyl-3-methyl-1H-imidazo[4,5-c]cinnolin-2(3H)-one] yielded an IC50 of 50 nM.
`CC(C)n1c(=O)n(C)c2nnc3ccc(-c4ccc([C@H](C)OCCN5CCC(F)(F)CC5)nc4)cc3c21` [Example 74, (S)-8-(6-(1-(2-(4,4-difluoropiperidin-1-yl)ethoxy)ethyl)pyridin-3-yl)-1-isopropyl-3-methyl-1H-imidazo[4,5-c]cinnolin-2(3H)-one] showed an IC50 of 179 nM.
For `CC(C)n1c(=O)n(C)c2nnc3ccc(-c4ccc([C@@H](C)OCCN5CCC(F)(F)CC5)nc4)cc3c21` [Example 75, (R)-8-(6-(1-(2-(4,4-difluoropiperidin-1-yl)ethoxy)ethyl)pyridin-3-yl)-1-isopropyl-3-methyl-1H-imidazo[4,5-c]cinnolin-2(3H)-one], the IC50 was 19 nM.
With `CC(C)n1c(=O)n(C)c2nnc3ccc(-c4ccc([C@@H](C)OCCN5CC[C@H](C)C5)nc4)cc3c21` [Example 78, 1-isopropyl-3-methyl-8-(6-((R)-1-(2-((S)-3-methylpyrrolidin-1-yl)ethoxy)ethyl)pyridin-3-yl)-1H-imidazo[4,5-c]cinnolin-2(3H)-one] the IC50 was 6.4 nM.
Compound `CC(C)n1c(=O)n(C)c2nnc3ccc(-c4ccc([C@@H](C)OCCN5CC[C@@H](S(C)(=O)=O)C5)nc4)cc3c21` [Example 79, 1-isopropyl-3-methyl-8-(6-((R)-1-(2-((R)-3-(methylsulfonyl)pyrrolidin-1-yl)ethoxy)ethyl)pyridin-3-yl)-1H-imidazo[4,5-c]cinnolin-2(3H)-one] has an IC50 of 37 nM.
Work on `CC(C)n1c(=O)n(C)c2nnc3ccc(-c4ccc([C@@H](C)OCCN5CC6(COC6)C5)nc4)cc3c21` [Example 81, (R)-8-(6-(1-(2-(2-oxa-6-azaspiro[3.3]heptan-6-yl)ethoxy)ethyl)pyridin-3-yl)-1-isopropyl-3-methyl-1H-imidazo[4,5-c]cinnolin-2(3H)-one] yielded an IC50 of 3 nM.
`CC(C)n1c(=O)n(C)c2nnc3ccc(-c4ccc([C@@H](C)OCCN5CCC6(CCO6)CC5)nc4)cc3c21` [Example 82, (R)-8-(6-(1-(2-(1-oxa-7-azaspiro[3.5]nonan-7-yl)ethoxy)ethyl)pyridin-3-yl)-1-isopropyl-3-methyl-1H-imidazo[4,5-c]cinnolin-2(3H)-one] showed an IC50 of 3.4 nM.
